A value given as a limit tells only on which side of the number the result lay.

A word on the melting point: it is the temperature, or range, at which the solid turns liquid. The compound `N#Cc1ccc(O)c(Cc2cc(F)cc(Cc3cc(C#N)ccc3O)c2O)c1` registered a melting point of 222 °C.

For the compound `C#CCOc1cc(-n2c(Cl)c(C#N)n(CCC)c2=O)c(F)cc1Cl`, the melting point worked out at 122 °C.

`Cn1c(-c2ccc(OCC3CO3)cc2)nnc1C(F)(F)F` (stereo unspecified) registered a melting point of 104 to 106 °C.

As to `CC(C)[C@H](NC(=O)OC(C)(C)C)[C@H](O)C(F)(F)F`, the melting point lay within 87 to 88 °C.

In turn, `CC=CCOc1ccc(C)c2c1C(=O)C(C)C2c1ccccc1` (stereo unspecified) displayed a melting point of 138 to 140 °C.

Regarding `CC(C)C(=O)O[C@H]1[C@H](C)OC(=O)[C@@H](NC(=O)OC(C)(C)C)COC(=O)[C@@H]1CC(=O)OC(C)(C)C`, the melting point is 170 to 172 °C.

As for `CNC(=O)c1cccc(Nc2ncnc3[nH]cc(C(=O)c4cccc5ccccc45)c23)c1`, the melting point was over 300 °C.

As to `COc1ccc(NC(=O)c2ccc(-c3ccc(C(=O)N4CCC4)cc3C)cc2)cc1N1CCN(C)CC1`, the melting point is 167 to 170 °C.

`Cc1c(C(=O)Nc2ccc(N3CCC(N4CCCCC4)CC3)c(C#N)c2)cnn1-c1ccc(Cl)cc1` had a melting point of 252 °C.

Consider `C#CCN1CCN(C2=Nc3cc(Cl)ccc3Nc3ccccc32)CC1`, for which the melting point lay within 138 to 140 °C.

The compound `CN1C(=O)c2ccccc2C(CCO)N1c1cccc([N+](=O)[O-])c1` (stereo unspecified) had a melting point of 183 to 184 °C.

Consider `COC(=O)C1=C[C@@H](OC(C)C)[C@H](NC(C)=O)[C@@H](CCO)C1`, for which the melting point is 118 to 119 °C.

In turn, `O=C1CCC(c2ccccc2)(c2ccccc2)[C@@H]2CN(C(=O)Cc3ccc(Cl)cc3)C[C@H]12` (racemic) displayed a melting point of 213 °C.

`CC(=O)Nc1ccc(-c2cc(-c3c(-c4ccccn4)nc4ccccn34)ccn2)cc1` showed a melting point of 133 °C.

`O=C(O)c1cnc(-c2ccc(NC(=O)C(Cl)Cl)cc2)nc1O` showed a melting point of over 310 °C.

Regarding `COc1ccc(Cc2nnc3c4ccccc4c(Nc4cccc(-c5nn[nH]n5)c4)nn23)cc1`, the melting point fell in the range of 292 to 293 °C.

Consider `O=C(c1cn(Cc2ccccc2Cl)nn1)N1CCCCC1`, for which the melting point was 141 to 142 °C.

With `CCOC(=O)c1c(N2CCN(C(=O)c3ccco3)CC2)c2cc(F)cnc2n(CC(=O)c2ccccc2)c1=O`, the melting point came out at 134 °C.

In turn, `N#Cc1ccc(-c2cn(-c3ccc(C#N)cc3)cn2)cc1` came in with a melting point of 258 to 263 °C.

`Nc1ccc(Cc2ccc(CS(=O)(=O)NCc3ccccc3)cc2)cc1`: the melting point lay in the range of 115 to 118 °C.

Regarding `O=S(=O)(NCCc1ccccc1)c1cccc(-c2cc(-c3nc(-c4ccc(C(F)(F)F)cc4)cc(C(F)(F)F)n3)ccn2)c1`, the melting point is 201 °C.

`Cc1c(Br)cc(S(C)(=O)=O)c(C)c1Cl` returned a melting point of 124 to 126 °C.

`O=C(O)c1ccc(-c2nc3cc(Cl)c(Cl)cc3[nH]2)cc1`: the melting point was over 250 °C.

The compound `COC(=O)c1ccc(SCn2cc(I)cnc2=O)cc1` displayed a melting point of 210 °C.

`CN(C)C(=O)c1cc(-c2ccc(-c3ccco3)cc2)n(-c2ccc(S(C)(=O)=O)c(F)c2)n1` registered a melting point of 167 to 168 °C.

Compound `O=CC(CC(=O)O)NC(=O)C1CCCN2C(=O)CCC(NC(=O)c3ccccc3)C(=O)N12` (stereo unspecified) showed a melting point of 143 to 147 °C.

Consider `O=C(c1c(F)cccc1F)N1COCN(c2ccc(Cl)cc2)C1=O`, for which the melting point fell in the range of 125 to 126 °C.

For the compound `Fc1ccc(-c2ccc(C3OCCO3)cc2)cc1F`, the melting point lay in the range of 89 to 91 °C.

Turning to `CN(C)C=C(Cc1ccccc1)C(=O)c1cccnc1Cl`, the melting point was 115 to 120 °C.

In turn, `COc1cc(C(=O)Oc2cc(Cl)c(Cl)cc2Cl)ccc1Cc1cn(C)c2ccc([N+](=O)[O-])cc12` came in with a melting point of 134 to 136 °C.

For the compound `O=C1N(Cc2ccc(Cl)s2)c2ccc(F)cc2C12COc1cc3c(cc12)OCO3` (stereo unspecified), the melting point was 142 to 144 °C.

For the compound `Cn1ccc2cc(N3Cc4ccc(N5CCCC5)cc4C3=O)ccc21`, the melting point lay within 252 to 253 °C.

With `CN1CCN(Cc2ccc(-c3cc4c(Nc5ccc6[nH]ccc6c5)c(C#N)cnc4s3)nc2)CC1`, the melting point was over 245 °C.

In turn, `COC(=O)C1=C(C)Nc2c(c(C)nn2C)C1c1ccccc1[N+](=O)[O-]` (stereo unspecified) came in with a melting point of 216 to 220 °C.

`CCNC(=O)[C@@H]1C[C@H](SCc2ccc(OC)cc2)CN1` had a melting point of 67 to 68 °C.

`CC(C)N1CC([N+](=O)[O-])=C(NCC(=O)O)C1=O` gave a melting point of 180 to 185 °C.

On to `CN1CCN(c2cc(Cl)cc3c2c(=O)n(Cc2ccc(O)cc2)c(=O)n3Cc2ccccc2)CC1`, for which the melting point lay within 138 to 140 °C.

Compound `O=c1[nH]c2ncc(-c3ccc(O)cc3)nc2n1C1CCCC1` showed a melting point of 299 to 301 °C.

`COC(=O)C1CC2=C(CO1)C(=O)c1cc3ccccc3c(OC(C)=O)c1C2=O` (stereo unspecified) registered a melting point of 196 to 198 °C.

Consider `CCCC=Cc1c(C(C)C)nc(C(C)C)c(CO)c1-c1ccc(S(C)=O)cc1` (stereo unspecified), for which the melting point was 133 to 135 °C.

`Nc1cccc(NNC=O)c1` registered a melting point of 108 to 113 °C.

Compound `O=C(NCCCCC1N=C(c2ccccc2)OC1=O)OCc1ccccc1` (stereo unspecified) had a melting point of 72 to 73 °C.

The compound `CCCCCCCCCCCCCN(O)C(=O)N(C)C` returned a melting point of 57 to 58 °C.

`COc1ccc(S(=O)(=O)N(CCn2ccnc2)c2ccc(Cl)cc2Cc2c(F)cccc2F)cc1OC` gave a melting point of 160 °C.

In turn, `CC1C(=O)NC(c2ccc(NC(=O)CCl)cc2)c2ccccc21` (stereo unspecified) gave a melting point of 238 to 239 °C.

On to `Cc1cc(Oc2cc(C(F)(F)F)nn2C)nc(C(=O)O)c1`, for which the melting point amounted to 168 °C.

Turning to `Cc1[nH]c(C=O)c(C)c1CCCO`, the melting point stood at 85 °C.

In turn, `CN1C(=O)C2C3C=CC(CCC3)C2(c2ccc(Cl)c(Cl)c2)C1=O` (stereo unspecified) showed a melting point of 110 to 115 °C.

As to `NS(=O)(=O)c1ccc(-c2[nH]c3ccc(Br)cc3c2-c2ccccc2)cc1`, the melting point is 310 to 312 °C.

`CCOC(=O)C(C)NNc1cc(F)cc(F)c1` (stereo unspecified) yielded a melting point of 139 to 141 °C.

`COc1cc(S(C)(=O)=O)ccc1-n1nc(C(F)(F)F)cc1-c1ccc(-c2ccco2)cc1` yielded a melting point of 200 °C.

On to `CC(C)(C)c1cc2c(c(C(C)(C)C)c1O)CCO2`, for which the melting point came to 113 °C.

Turning to `CCCCc1nc2c(N)nc3ccccc3c2n1CCCCNS(=O)(=O)c1cccc2c(N(C)C)cccc12`, the melting point was 223 to 224 °C.

`Nc1ccc(OCc2ccc(Cl)nc2)cc1F` registered a melting point of 101 °C.

The compound `O=C1c2ccccc2CN1c1ccc(OCCN2CCN(c3nsc4ccccc34)CC2)cc1` came in with a melting point of 166 to 167 °C.

Consider `Nc1ccc2c3c1c(=O)c(C(=O)O)cn3CCC2`, for which the melting point is over 300 °C.

`COc1ccc(C(=O)Nc2cc([N+](=O)[O-])ccc2C)cc1OC` yielded a melting point of over 300 °C.

As to `Fc1ccc2c(c1)[C@@H]1c3ccccc3N[C@@H]1C2` (relative stereo), the melting point was 116 to 117 °C.

Compound `O=C(CI)CCc1ccccc1` yielded a melting point of 44 to 45 °C.

`CN(C)C=Nc1c(Cl)cc(N=Cc2ccc(C#N)cc2)cc1Cl` returned a melting point of 169 to 170 °C.

`CC(N)C(=O)N1C(C(=O)O)CC2CCCCC21` (stereo unspecified) came in with a melting point of 163 to 165 °C.

The values above are taken from a melting point compilation (Tetko et al.; mined from patent text by program, amines drawn as free bases though some values may be those of a salt).
